# Reference: the supplement of paper PMC10307832
# Tests used:
# Assay in all cases: relative viability (nuclei count vs DMSO), 5 days (fraction); higher = more cells survive
# ALW-II-49-7 + Dasatinib = compound: Cc1ccc(C(=O)Nc2cccc(C(F)(F)F)c2)cc1Nc1cncc(C(N)=O)c1 [ALW-II-49-7] + Cc1nc(Nc2ncc(C(=O)Nc3c(C)cccc3Cl)s2)cc(N2CCN(CCO)CC2)n1 [Dasatinib] (partner 0.075 µM)
# Summary of the method: (§1)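 Dosing by pin tool came one day after lung cancer cell lines were seeded in 1536-well plates, using either one drug or a fixed anchor-drug dose plus five library-drug doses (not always all listed) in √10 steps. After 5 days, nuclei were counted on 4× images. Relative viability is treated-well nuclei count divided by vehicle-well nuclei count, and values are medians of duplicate plates.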
# ALW-II-49-7 + AZD7762 = compound: Cc1ccc(C(=O)Nc2cccc(C(F)(F)F)c2)cc1Nc1cncc(C(N)=O)c1 [ALW-II-49-7] + NC(=O)Nc1cc(-c2cccc(F)c2)sc1C(=O)N[C@H]1CCCNC1 [AZD7762] (partner 0.2 µM)
# Summary of the method: as §1
# ALW-II-49-7 + Decitabine = compound: Cc1ccc(C(=O)Nc2cccc(C(F)(F)F)c2)cc1Nc1cncc(C(N)=O)c1 [ALW-II-49-7] + Nc1ncn([C@H]2C[C@H](O)[C@@H](CO)O2)c(=O)n1 [Decitabine] (partner 2 µM)
# Summary of the method: as §1
# Dasatinib + Trametinib = compound: Cc1nc(Nc2ncc(C(=O)Nc3c(C)cccc3Cl)s2)cc(N2CCN(CCO)CC2)n1 [Dasatinib] + CC(=O)Nc1cccc(-n2c(=O)n(C3CC3)c(=O)c3c(Nc4ccc(I)cc4F)n(C)c(=O)c(C)c32)c1 [Trametinib] (partner 0.02 µM)
# Summary of the method: as §1
Cell Line,relative viability (ALW-II-49-7 + Dasatinib; first compound 0.08 µM),relative viability (ALW-II-49-7 + Dasatinib; first compound 0.253 µM),relative viability (ALW-II-49-7 + Dasatinib; first compound 0.8 µM),relative viability (ALW-II-49-7 + Dasatinib; first compound 2.53 µM),relative viability (ALW-II-49-7 + Dasatinib; first compound 8 µM),relative viability (ALW-II-49-7 + AZD7762; first compound 0.08 µM),relative viability (ALW-II-49-7 + AZD7762; first compound 0.253 µM),relative viability (ALW-II-49-7 + AZD7762; first compound 0.8 µM),relative viability (ALW-II-49-7 + AZD7762; first compound 2.53 µM),relative viability (ALW-II-49-7 + AZD7762; first compound 8 µM),relative viability (ALW-II-49-7 + Decitabine; first compound 0.08 µM),relative viability (ALW-II-49-7 + Decitabine; first compound 0.253 µM),relative viability (ALW-II-49-7 + Decitabine; first compound 0.8 µM),relative viability (ALW-II-49-7 + Decitabine; first compound 2.53 µM),relative viability (ALW-II-49-7 + Decitabine; first compound 8 µM),relative viability (Dasatinib + Trametinib; first compound 0.005 µM),relative viability (Dasatinib + Trametinib; first compound 0.01581 µM),relative viability (Dasatinib + Trametinib; first compound 0.05 µM),relative viability (Dasatinib + Trametinib; first compound 0.1581 µM),relative viability (Dasatinib + Trametinib; first compound 0.5 µM)
201T,0.616,0.664,0.545,0.594,0.479,0.661,0.604,0.745,0.574,0.552,0.832,0.84,0.872,0.846,0.904,0.695,0.64,0.708,0.575,0.44
A549,,,,,,,,,,,0.207,0.211,0.246,0.335,0.254,,,,,
A-427,0.686,0.824,0.733,0.741,0.627,0.714,0.814,0.634,0.759,0.482,0.531,0.585,0.616,0.612,0.655,0.76,0.598,0.713,0.433,0.408
ABC-1,0.501,0.627,0.506,0.656,0.483,0.914,0.563,0.915,,0.668,1.02,1.11,1.01,1.35,0.947,,,,,
BEN,0.378,0.341,0.348,0.325,0.305,0.723,0.769,0.666,0.799,0.765,0.693,0.751,0.776,0.728,0.656,0.891,0.614,0.8,0.528,0.511
CAL-12T,0.433,0.223,0.277,0.372,0.266,0.5,0.641,0.744,0.349,0.588,,,,,,0.331,0.324,0.343,0.198,0.138
COR-L23,0.483,0.419,0.45,0.443,0.523,,,,,,0.426,0.521,0.408,0.501,0.439,0.563,0.416,0.48,0.444,0.281
COR-L 105,0.304,0.308,0.326,0.272,0.329,,,,,,0.722,0.71,0.673,0.58,0.616,0.445,0.358,0.389,0.336,0.253
ChaGo-K-1,0.538,0.668,0.554,0.539,0.501,0.94,0.996,0.882,0.768,0.807,0.541,0.472,0.526,0.537,0.546,0.89,0.855,0.95,0.777,0.6
EKVX,0.382,0.481,0.546,0.425,0.454,0.665,0.619,0.821,0.574,0.646,0.513,0.321,0.327,0.318,0.408,0.345,0.306,0.254,0.178,0.114
EMC-BAC-2,0.311,0.324,0.284,0.293,0.29,1.09,1.21,0.916,1.11,0.896,1.01,1.02,0.982,0.947,0.907,0.965,0.93,0.923,0.857,0.716
EPLC-272H,0.283,,0.26,0.345,0.375,0.169,0.251,0.278,0.248,0.198,0.326,0.381,0.329,0.373,0.295,0.312,0.267,0.307,0.222,0.141
H3255,0.436,0.234,0.431,0.322,0.348,0.938,1.06,0.874,0.801,0.574,0.611,0.511,0.662,0.577,0.425,0.667,0.489,0.587,0.431,0.297
HARA,0.351,0.272,0.148,0.22,0.161,0.325,0.28,0.3,0.375,0.347,0.689,0.47,0.497,0.52,0.663,0.714,0.31,0.518,0.189,0.212
HCC-15,0.667,0.614,0.692,0.684,0.664,1.22,1.14,1,1.39,1.25,0.596,0.654,0.626,0.624,0.644,0.354,0.336,0.332,0.253,0.207
HCC-44,,,,,,0.992,1.02,1.03,1.03,0.964,0.971,0.974,0.945,0.996,0.913,1.11,0.94,1.16,1.17,0.574
HCC-78,0.475,0.466,,0.361,0.383,0.614,0.693,0.684,0.611,0.713,0.68,0.639,0.71,0.666,0.619,0.676,0.679,0.643,0.444,0.354
HCC-366,0.694,0.75,0.591,0.528,0.7,0.264,0.259,0.24,0.245,0.203,0.354,0.371,0.374,0.385,0.307,0.283,0.182,0.218,0.16,0.117
